The values that follow come from patent US20250188058A1, “NEW FORMS OF N-(5-((6,7-DIMETHOXYQUINOLIN-4-YL)OXY)PYRIDIN-2-YL)-1-PROPYL-4-(2,2,2-TRIFLUOROETHOXY)-1H-PYRAZOLE-3-CARBOXAMIDE HYDROCHLORIDE” (QURIENT CO., LTD., priority 2022, published 2025).

Series [1] is described as follows: Humidity stress using crystalline material (HCl form C). It is filed as physicochemical. The conditions noted are these: 8 days. The procedure: Approximately 25 mg of […] […] HCl form C material and were stressed for 8 days. All samples remained as […] HCl form C material.
The nature of series [2]: Dynamic Vapour Sorption (DVS) hygroscopicity. The format is physicochemical. As to conditions: for total weight gain between 40-80% RH: DVS isothermal plot, 25° C. The procedure:
Dynamic Vapour Sorption (DVS) was performed using a Hiden Analytical Instruments IGAsorp Vapour Sorption Balance. Approximately 30 mg of sample was placed into a wire-mesh vapour sorption balance pan, loaded into the IGAsorp vapour sorption balance and held at 25° C.±0.1° C. The sample was subjected to a step profile from o to 90% RH at 10% increments, followed by desorption from 90% RH to 0% RH at 10% increments. The equilibrium criterion was set to 99.0% step completion within a minimum of 60 minutes and a maximum of 5 hours for each increment. The weight change during the sorption cycle was monitored, allowing for the hygroscopic nature of the sample to be determined. The data collection interval was in seconds.

Series [3] can be described thus: Stress at 40° C./75% relative humidity for 15 days. It is filed as physicochemical. The conditions noted are these: 40° C./75% RH. The procedure: HCl form C was stressed at 40° C./75% relative humidity for 15 days.
Form A was stressed at 40° C./75% for 15 days. […] Solvent was not detected.

A short description of series [4]: Aqueous solubility of crystalline salts of Q702 (slurried overnight in deionised water, HPLC). As to conditions: crystalline salts slurried overnight in deionised water (pH = 6.8); for pH of solution: solution pH measured.
Protocol: (§1) Solubility was measured by a) solubility estimation by aliquot addition and b) HPLC: • a) Solubility estimation by aliquot-addition
(§2) Samples were held at ambient temperature for 18 hours to maximize the chance of precipitation. Any recoverable solids were analyzed by XRPD.
(§3) The HPLC method used to determine equilibrium solubility in a variety of solvents is outlined. […] A phenomenex Kinetex column was used with a particle size of 2.6 μm.
Series [5] can be described thus: Pharmacokinetic study in plasma after oral administration. The format is in vivo, male SD rats. The conditions noted are these: 30 mg/kg; for AUC(0-t) / Cmax / Tmax / half-life: vehicle water. The procedure: In this example, pharmacokinetic studies are performed using the form A of the HCl-salt of Q702 and the free base (FB) thereof in plasma, following oral administration of such form A and free base to male SD rats.
Appropriate amounts of the form A of Q702 HCl or of free base were accurately weighed and mixed with appropriate volume of vehicle (water) to get a clear solution or uniform suspension. Male SD rats were dosed with a nominal dose of 30 mg/kg body weight. After dosing, 0.2 mL blood was collected per time point at time points o h, 0.083 h, 0.25 h, 0.5 h, 1 h, 2 h, 4 h, 8 h, 12 h, and 24 h. For such blood collection, blood was collected from the jugular vein or other suitable site of each animal into pre-chilled plastic microcentrifuged tubes containing 5 μL of 1000 IU heparin Na as anti-coagulant. Blood samples were processed for plasma by centrifugation at approximately 4° C., 3200 g for ten minutes. Plasma was collected and transferred into pre-labelled polypropylene tubes, snap-frozen over dry ice and kept at −60° C. or lower until LC-MS/MS-analysis was performed. LC-MS/MS methodology was performed using a calibration curve with at least 6 non-zero calibration standards.
Plasma concentrations versus time were plotted and analysed by non-compartmental approaches using the Phoenix WinNonlin 6.3 software program. Related pharmacokinetic parameters were calculated according to dosing route, e. g.

Series [6] is described as follows: Long term stability of Form A of Q702 HCl salt. The format is physicochemical. Here is the method:
Form A of […] HCl salt was tested for long term stability to 24 months.

The nature of series [7]: Solubility estimation by aliquot addition in solvents. It is filed as physicochemical. As to conditions: organic solvent or mixture, thermodynamic from solid. Here is the method:
The aliquot volumes were typically 100-1000 μL. Complete dissolution of the test material was determined by visual inspection. The solubility was estimated from these experiments based on the total solvent used to provide complete dissolution. […] From the infrared (IR) transmission data of the sample vials, dissolution and precipitation events were recorded as the point of complete transmission of IR and the onset of turbidity by IR respectively. […] Any recoverable solids were analyzed by XRPD. […] HCl salt was estimated in 9 solvent systems using the aliquot addition method.

A short description of the next series: physchem. The conditions noted are these: pH 6.8, water, thermodynamic from solid.
Series [8] in a line: Humidity stress using amorphous material. It is filed as physicochemical. The conditions noted are these: 6 days. The text has this: X-ray amorphous material generated from freeze drying was exposed to various controlled humidity conditions for 6 days before analysis by XRPD. Both samples remained as amorphous material.
The nature of series [9]: Thermal stressing of amorphous Q702 HCl salt. The format is physicochemical. The conditions noted are these: 50° C., 7 days, under nitrogen in a sealed vial.

Protocol for physchem: as §1, §2, §3

In the case of `CCCn1cc(OCC(F)(F)F)c(C(=O)Nc2ccc(Oc3ccnc4cc(OC)c(OC)cc34)cn2)n1.Cl` [HCl form C], the “% Weight change” value in [1] (40° C./75% RH stress) was −1.96%; in series [1] (75% RH stress), −11.05%; in [1] (98% RH stress), “+2.99%”; in [1] (98% RH stress, listed as Q702 HCl form C), 2.99%. Besides, the weight loss in [1] (40° C./75% RH) came to 1.96%; in series [1] (75% RH stress), 11.05%. Further, the “total weight gain between 40-80% RH” value in [2] is 0.7 % w/w. Moreover, in series [2] (after DVS analysis), the “XRPD analysis of post DVS sample” value was “no physical change in the sample was detected”. Also, the “hygroscopicity, European Pharmacopoeia classification” value in [2] (based on DVS weight gain 40-80% RH) is reported as “slightly hygroscopic”. Besides, the XRPD after stress entry in [3] is recorded as “remained as HCl salt form C”.
Regarding `O=C(O)CCC(=O)C(=O)O` [Ketoglutarate], the pH of solution in [4] is 2.91.
As usually defined, the AUC(0-t) is the area under the concentration-time curve up to a stated or last time point. A lower AUC(0-t) goes with less exposure. In general, Cmax refers to the peak of the concentration-time curve. Broadly, the Tmax is the time at which the peak concentration occurs. Broadly, the half-life is how long it takes for the measured level to halve. High values mean slow loss, low ones fast loss. Take `CCCn1cc(OCC(F)(F)F)c(C(=O)Nc2ccc(Oc3ccnc4cc(OC)c(OC)cc34)cn2)n1.Cl` [Q702 HCl form A, N-(5-((6,7-dimethoxyquinolin-4-yl)oxy)pyridin-2-yl)-1-propyl-4-(2,2,2-trifluoroethoxy)-1H-pyrazole-3-carboxamide hydrochloride]: the “plasma exposure level higher than that of the free base (mean AUC-values)” value in series [5] (versus Q702 free base) turned out to be 33%. In [5] (male, SD, rat, plasma), the AUC(0-t) was determined as 430 µg·h/mL, the peak level (Cmax) was 37000 ng/mL, the Tmax amounted to 2.83 h and the half-life is 10.3 h. For the same compound, in series [5] (male, SD, rat, plasma, test = form A of HCl-salt, ref = free base of Q702, read-out: relative bioavailability), the bioavailability stood at 144%. Also, the “total weight gain between 40-80% RH” value in series [2] (hydrochloride) was 0.5 % w/w. Besides, in series [6] (25 ± 2° C./60 ± 5% RH, 12 M), the Assay is recorded as 94.0%, the Purity is 100.0% and the XRPD entry was “Consistent”. For the same compound, in series [6] (25 ± 2° C./60 ± 5% RH, 24 M), the Assay stood at 94.6%, the Purity is recorded as 99.9% and the XRPD result is listed as “Consistent”. In addition, in series [6] (40 ± 2° C./75 ± 5% RH, 6 M), the Assay amounted to 94.8%, the Purity is 99.9% and the XRPD entry is “Consistent”. Also, in [6] (Initial), the Assay worked out at 95.9%, the Purity amounted to 99.9% and the XRPD entry was “Consistent”. For the same compound, the “long term stability (XRPD results)” value in [6] (tested to 24 months) is on record as “stable to 24 months”. Also, in [3] (hydrochloride), the XRPD after stress entry was “remained as form A”.
By solubility is commonly meant how much of the substance goes into solution per volume. On to `CCCn1cc(OCC(F)(F)F)c(C(=O)Nc2ccc(Oc3ccnc4cc(OC)c(OC)cc34)cn2)n1.Cl` [Q702 HCl salt, N-(5-((6,7-dimethoxyquinolin-4-yl)oxy)pyridin-2-yl)-1-propyl-4-(2,2,2-trifluoroethoxy)-1H-pyrazole-3-carboxamide hydrochloride], for which the solubility in series [7] (Acetone, 20° C., read-out: Solubility Range) was under 20 mg/mL; in [7] (Acetonitrile, 20° C., read-out: Solubility Range), under 20 mg/mL; in [7] (Dichloromethane, 20° C., read-out: Solubility Range) it was 66 to 100 mg/mL; in series [7] (Dimethyl sulfoxide, 20° C., read-out: Solubility Range) it was over 201 mg/mL; in [7] (Ethanol, 20° C., read-out: Solubility Range), 67 to 101 mg/mL; in [7] (Ethyl acetate, 20° C., read-out: Solubility Range) it was under 20 mg/mL. Further, the solubility in series [7] (Methanol, 20° C., read-out: Solubility Range) was 49 to 66 mg/mL; in series [7] (Methyl tert-butyl ether, 20° C., read-out: Solubility Range), under 20 mg/mL; in series [7] (Tetrahydrofuran, 20° C., read-out: Solubility Range), under 20 mg/mL; in [7] (in four of the 9 solvents at ambient temperature, read-out: solubility), over 20 mg/mL; in the series “physchem”, 1.95 mg/mL.
`CCCn1cc(OCC(F)(F)F)c(C(=O)Nc2ccc(Oc3ccnc4cc(OC)c(OC)cc34)cn2)n1` [Q702 free base, N-(5-((6,7-dimethoxyquinolin-4-yl)oxy)pyridin-2-yl)-1-propyl-4-(2,2,2-trifluoroethoxy)-1H-pyrazole-3-carboxamide]: in series [5] (male, SD, rat, plasma), the AUC(0-t) is 323 µg·h/mL, the Cmax turned out to be 33800 ng/mL, the Tmax was determined as 3.33 h and the half-life was 10.9 h.
Regarding `CCCn1cc(OCC(F)(F)F)c(C(=O)Nc2ccc(Oc3ccnc4cc(OC)c(OC)cc34)cn2)n1.Cl` [amorphous Q702 HCl salt], the “XRPD after humidity stress” value in series [8] (40° C./75% RH stress) and in [8] (59% RH stress) was “amorphous” in each case. The “XRPD after thermal stress” value in series [9] (listed as Amorphous Q702 HCl salt) is given as “remained amorphous”; in series [9] (listed as amorphous) it was “amorphous”.
On to Tosylate, for which, in [4], the “Aq Solub” value is given as 0.026 mg/mL and the pH of solution is 4.26.
